Experimental data published in ChEMBL document CHEMBL1132082, “Nonsteroidal androgen receptor agonists based on 4-(trifluoromethyl)-2H-pyrano[3,2-g]quinolin-2-one” (Bioorg Med Chem Lett, 1999).

Legend:
Androgen receptor [1] = target: T1, Androgen receptor (Homo sapiens, UniProt P10275)
T1 sequence (P10275 whole entry): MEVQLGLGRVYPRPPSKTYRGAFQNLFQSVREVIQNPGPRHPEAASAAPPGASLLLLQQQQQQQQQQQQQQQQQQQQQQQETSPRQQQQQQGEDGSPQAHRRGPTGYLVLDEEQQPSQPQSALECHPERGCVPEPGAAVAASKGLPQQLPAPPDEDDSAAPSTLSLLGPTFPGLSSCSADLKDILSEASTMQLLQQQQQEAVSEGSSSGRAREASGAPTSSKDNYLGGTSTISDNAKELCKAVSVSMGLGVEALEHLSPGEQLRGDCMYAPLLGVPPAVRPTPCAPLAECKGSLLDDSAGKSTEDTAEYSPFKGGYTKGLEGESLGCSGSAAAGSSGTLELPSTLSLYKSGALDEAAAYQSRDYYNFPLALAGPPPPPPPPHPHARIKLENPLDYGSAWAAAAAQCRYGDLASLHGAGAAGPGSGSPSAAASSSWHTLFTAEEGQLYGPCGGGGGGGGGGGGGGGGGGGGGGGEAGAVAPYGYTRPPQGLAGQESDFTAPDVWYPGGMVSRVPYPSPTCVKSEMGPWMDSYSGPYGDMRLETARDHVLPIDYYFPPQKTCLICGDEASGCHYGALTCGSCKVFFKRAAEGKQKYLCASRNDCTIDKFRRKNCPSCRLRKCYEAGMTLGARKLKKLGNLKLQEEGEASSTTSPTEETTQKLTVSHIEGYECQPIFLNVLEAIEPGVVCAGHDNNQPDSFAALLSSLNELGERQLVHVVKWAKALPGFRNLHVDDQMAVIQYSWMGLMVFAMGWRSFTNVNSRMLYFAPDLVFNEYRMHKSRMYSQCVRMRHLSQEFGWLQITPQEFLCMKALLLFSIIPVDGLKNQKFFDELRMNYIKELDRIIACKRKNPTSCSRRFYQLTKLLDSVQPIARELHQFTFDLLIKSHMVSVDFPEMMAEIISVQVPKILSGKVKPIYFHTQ
Description: In vitro agonistic activity against human androgen receptor using cotransfection assay in CV-1 cells.

Androgen receptor [2] = target: T1, Androgen receptor; remark: listed apart in the source
Androgen receptor [3] = target: T1, Androgen receptor; assay: biochemical
Description: In vitro binding affinity at human androgen receptor transfected into COS cells.

Estrogen receptor [4] = target: T2, Estrogen receptor (Homo sapiens, UniProt Q92731+P03372); assay: In vitro antagonistic activity against human estrogen receptor (hER); not active; format: functional
Estrogen receptor [5] = target: T2, Estrogen receptor; assay: (§1) In vitro antagonistic activity against human estrogen receptor (hER); format: functional
Glucocorticoid receptor [6] = target: T3, Glucocorticoid receptor (Homo sapiens, UniProt P04150); assay: In vitro antagonistic activity against human glucocorticoid receptor (hGR); not active; format: functional
T3 sequence (P04150 whole entry): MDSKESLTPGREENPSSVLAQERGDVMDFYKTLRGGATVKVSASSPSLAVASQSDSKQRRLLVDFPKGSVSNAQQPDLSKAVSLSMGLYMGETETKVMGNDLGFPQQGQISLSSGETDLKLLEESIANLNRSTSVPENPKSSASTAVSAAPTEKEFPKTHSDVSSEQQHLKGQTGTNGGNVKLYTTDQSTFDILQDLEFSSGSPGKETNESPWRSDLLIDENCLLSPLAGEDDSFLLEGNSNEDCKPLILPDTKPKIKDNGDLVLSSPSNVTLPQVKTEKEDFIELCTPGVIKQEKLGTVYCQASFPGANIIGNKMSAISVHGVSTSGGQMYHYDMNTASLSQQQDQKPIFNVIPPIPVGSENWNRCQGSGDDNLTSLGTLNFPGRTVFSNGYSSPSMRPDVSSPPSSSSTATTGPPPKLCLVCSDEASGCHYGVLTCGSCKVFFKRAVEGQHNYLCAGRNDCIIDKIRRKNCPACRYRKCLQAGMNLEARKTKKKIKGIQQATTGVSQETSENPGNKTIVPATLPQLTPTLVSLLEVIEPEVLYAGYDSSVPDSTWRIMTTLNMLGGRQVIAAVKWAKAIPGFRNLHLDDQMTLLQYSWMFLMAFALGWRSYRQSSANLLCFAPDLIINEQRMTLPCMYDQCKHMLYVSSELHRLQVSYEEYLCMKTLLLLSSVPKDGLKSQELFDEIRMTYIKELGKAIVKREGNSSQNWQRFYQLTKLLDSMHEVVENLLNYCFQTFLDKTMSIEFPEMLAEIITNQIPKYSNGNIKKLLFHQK

[7] = target: T4, Mineralocorticoid receptor (Homo sapiens, UniProt P08235); assay: (§2) In vitro antagonistic activity against human mineralocorticoid receptor (hMR); format: functional
T4 sequence (P08235 whole entry): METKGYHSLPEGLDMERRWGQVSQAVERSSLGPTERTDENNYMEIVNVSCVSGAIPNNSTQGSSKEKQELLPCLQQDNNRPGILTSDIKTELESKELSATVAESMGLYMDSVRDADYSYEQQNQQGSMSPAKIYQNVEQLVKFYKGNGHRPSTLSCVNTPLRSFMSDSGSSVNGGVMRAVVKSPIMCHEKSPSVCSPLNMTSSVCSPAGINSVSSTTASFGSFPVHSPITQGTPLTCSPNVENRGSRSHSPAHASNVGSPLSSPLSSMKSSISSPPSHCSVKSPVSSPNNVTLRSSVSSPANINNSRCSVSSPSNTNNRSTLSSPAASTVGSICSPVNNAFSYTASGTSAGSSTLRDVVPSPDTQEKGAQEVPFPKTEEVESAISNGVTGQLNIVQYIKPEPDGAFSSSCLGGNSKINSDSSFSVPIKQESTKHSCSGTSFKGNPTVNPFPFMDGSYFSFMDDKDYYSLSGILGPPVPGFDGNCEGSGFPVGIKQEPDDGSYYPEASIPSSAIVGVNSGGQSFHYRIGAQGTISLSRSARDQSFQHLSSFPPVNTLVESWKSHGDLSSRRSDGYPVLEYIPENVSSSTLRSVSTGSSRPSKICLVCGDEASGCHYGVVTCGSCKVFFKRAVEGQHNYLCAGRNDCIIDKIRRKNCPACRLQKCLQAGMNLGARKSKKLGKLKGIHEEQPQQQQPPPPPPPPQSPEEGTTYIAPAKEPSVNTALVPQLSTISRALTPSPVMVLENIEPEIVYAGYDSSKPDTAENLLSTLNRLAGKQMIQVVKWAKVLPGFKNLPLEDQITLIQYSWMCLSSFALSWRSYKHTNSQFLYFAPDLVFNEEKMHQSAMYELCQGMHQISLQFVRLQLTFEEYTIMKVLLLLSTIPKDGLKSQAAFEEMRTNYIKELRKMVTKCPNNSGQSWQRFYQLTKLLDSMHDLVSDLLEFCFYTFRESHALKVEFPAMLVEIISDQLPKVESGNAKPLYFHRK

[8] = target: T5, Mineralocorticoid receptor (Homo sapiens) (UniProt P08235); assay: as §2; format: functional
T5 sequence (whole entry): T4 sequence (P08235 whole entry)

[9] = target: T6, Progesterone receptor (Homo sapiens) (UniProt P06401); assay: (§3) In vitro antagonistic activity against human progesterone receptor (hPR); format: functional
T6 sequence (whole entry): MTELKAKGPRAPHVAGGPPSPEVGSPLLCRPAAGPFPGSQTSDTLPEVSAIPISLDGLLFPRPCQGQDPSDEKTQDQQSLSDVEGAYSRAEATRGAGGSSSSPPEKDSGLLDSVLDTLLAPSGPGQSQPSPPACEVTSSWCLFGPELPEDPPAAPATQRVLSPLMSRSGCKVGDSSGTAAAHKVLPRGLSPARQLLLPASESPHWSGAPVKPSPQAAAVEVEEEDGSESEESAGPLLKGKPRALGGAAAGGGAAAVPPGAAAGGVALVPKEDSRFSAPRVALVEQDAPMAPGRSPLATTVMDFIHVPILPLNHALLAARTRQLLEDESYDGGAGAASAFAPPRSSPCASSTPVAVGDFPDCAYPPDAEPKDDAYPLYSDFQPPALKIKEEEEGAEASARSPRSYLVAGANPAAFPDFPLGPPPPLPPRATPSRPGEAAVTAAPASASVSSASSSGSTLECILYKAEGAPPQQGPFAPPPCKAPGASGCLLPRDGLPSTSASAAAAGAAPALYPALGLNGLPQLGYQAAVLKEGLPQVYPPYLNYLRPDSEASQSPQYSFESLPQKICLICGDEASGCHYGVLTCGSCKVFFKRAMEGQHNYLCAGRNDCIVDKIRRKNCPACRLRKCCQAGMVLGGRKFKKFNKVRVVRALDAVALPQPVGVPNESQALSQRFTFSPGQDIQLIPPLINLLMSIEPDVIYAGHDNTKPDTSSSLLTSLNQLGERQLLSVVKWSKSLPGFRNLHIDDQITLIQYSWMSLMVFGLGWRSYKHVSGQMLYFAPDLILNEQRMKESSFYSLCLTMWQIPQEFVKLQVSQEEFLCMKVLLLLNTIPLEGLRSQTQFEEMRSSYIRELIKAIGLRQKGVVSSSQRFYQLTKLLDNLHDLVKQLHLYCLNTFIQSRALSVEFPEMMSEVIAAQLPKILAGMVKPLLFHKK

Progesterone receptor = target: T7, Progesterone receptor (Homo sapiens, UniProt P06401); assay: as §3; format: functional
T7 sequence (P06401 whole entry): T6 sequence (whole entry)

Androgen receptor [10] = target: T1, Androgen receptor; remark: listed apart in the source
Estrogen receptor [11] = target: T2, Estrogen receptor; assay: In vitro antagonistic activity against human estrogen receptor (hER); Not active; format: functional
Glucocorticoid receptor [12] = target: T3, Glucocorticoid receptor; assay: In vitro antagonistic activity against human glucocorticoid receptor (hGR); format: functional
[13] = target: T4, Mineralocorticoid receptor; assay: In vitro antagonistic activity against human mineralocorticoid receptor (hMR); not active; format: functional
Estrogen receptor [14] = target: T2, Estrogen receptor; assay: as §1; format: functional; remark: listed apart in the source

SMILES: O=c1cc(C(F)(F)F)c2cc3c(cc2o1)NCCC3C(F)(F)C(F)(F)F (centres undefined)
- EC50 (Androgen receptor [1]): 13 nM
- IC50 (Androgen receptor [2]): > 10 nM
- IC50 (Androgen receptor [3]): 5 nM

SMILES: O=c1cc(C(F)(F)F)c2cc3c(cc2o1)NCCC3
- EC50 (Androgen receptor [1]): 19 nM
- IC50 (Androgen receptor [2]): > 10 nM
- IC50 (Androgen receptor [3]): 1 nM

SMILES: CC1(C)CCc2cc3c(C(F)(F)F)cc(=O)oc3cc2N1
- IC50 (Estrogen receptor [4]): > 10 µM
- Efficacy (Estrogen receptor [5]): < 20%
- IC50 (Glucocorticoid receptor [6]): > 10 µM
- IC50 [7]: 1500 nM
- Efficacy [8]: 50%
- Efficacy [9]: 84%
- IC50 (Progesterone receptor): 570 nM
- EC50 (Androgen receptor [1]): 9 nM
- IC50 (Androgen receptor [2]): > 10 nM
- IC50 (Androgen receptor [3]): 1 nM

SMILES: CCC1CC(CC)c2cc3c(C(F)(F)F)cc(=O)oc3cc2N1 (trans isomer)
- EC50 (Androgen receptor [1]): 26 nM
- IC50 (Androgen receptor [2]): > 10 nM
- IC50 (Androgen receptor [3]): 7 nM

SMILES: CC[C@@H]1CNc2cc3oc(=O)cc(C(F)(F)F)c3cc2[C@H]1CC (stereo in doubt)
- EC50 (Androgen receptor [10]): 1400 nM
- IC50 (Estrogen receptor [11]): > 10 µM
- Efficacy (Estrogen receptor [5]): < 20%
- IC50 (Glucocorticoid receptor [12]): 2800 nM
- IC50 [7]: 1900 nM
- Efficacy [8]: 50%
- Efficacy [9]: 98%
- IC50 (Progesterone receptor): 65 nM
- EC50 (Androgen receptor [1]): 5 nM

SMILES: CC[C@H]1C[C@@H](C)Nc2cc3oc(=O)cc(C(F)(F)F)c3cc21 (relative stereo)
- EC50 (Androgen receptor [10]): 16 nM
- EC50 (Androgen receptor [1]): 27 nM
- IC50 (Androgen receptor [3]): 12 nM

SMILES: CC[C@@H]1c2cc3c(C(F)(F)F)cc(=O)oc3cc2NC[C@H]1C (relative stereo)
- IC50 (Estrogen receptor [4]): > 10 µM
- Efficacy (Estrogen receptor [5]): < 20%
- IC50 (Glucocorticoid receptor [12]): 2300 nM
- IC50 [7]: 3000 nM
- Efficacy [8]: 60%
- Efficacy [9]: 98%
- IC50 (Progesterone receptor): 130 nM
- EC50 (Androgen receptor [1]): 1 nM
- IC50 (Androgen receptor [2]): > 10 nM
- IC50 (Androgen receptor [3]): 0.3 nM

SMILES: CC[C@H]1CNc2cc3oc(=O)cc(C(F)(F)F)c3cc2[C@@H]1CC (stereo in doubt)
- EC50 (Androgen receptor [1]): 5 nM
- IC50 (Androgen receptor [2]): > 10 nM

SMILES: CC1=CC(C)(C)Nc2cc3oc(=O)cc(C(F)(F)F)c3cc21
- IC50 (Estrogen receptor [4]): > 10 µM
- Efficacy (Estrogen receptor [5]): < 20%
- IC50 (Glucocorticoid receptor [6]): > 10 µM
- IC50 [13]: > 10 µM
- Efficacy [8]: < 20%
- Efficacy [9]: 79%
- IC50 (Progesterone receptor): 100 nM

SMILES: CCC1CCN(C)c2cc3oc(=O)cc(C(F)(F)F)c3cc21 (centres undefined)
- EC50 (Androgen receptor [1]): 209 nM
- IC50 (Androgen receptor [2]): > 10 nM
- IC50 (Androgen receptor [3]): 276 nM

SMILES: CC[C@H]1c2cc3c(C(F)(F)F)cc(=O)oc3cc2NC[C@H]1C (relative stereo)
- IC50 (Estrogen receptor [14]): 3.1 µM
- Efficacy (Estrogen receptor [5]): 33%
- IC50 (Glucocorticoid receptor [12]): 340 nM
- IC50 [7]: 2800 nM
- Efficacy [8]: 39%
- Efficacy [9]: 87%
- IC50 (Progesterone receptor): 130 nM
- EC50 (Androgen receptor [1]): 7 nM
- IC50 (Androgen receptor [2]): > 10 nM
- IC50 (Androgen receptor [3]): 2 nM

SMILES: CCC1CC(C)c2cc3c(C(F)(F)F)cc(=O)oc3cc2N1 (cis isomer)
- EC50 (Androgen receptor [1]): 8 nM
- IC50 (Androgen receptor [2]): > 10 nM
- IC50 (Androgen receptor [3]): 11 nM

SMILES: CCC1CCc2cc3c(C(F)(F)F)cc(=O)oc3cc2N1 (centres undefined)
- EC50 (Androgen receptor [1]): 7 nM
- IC50 (Androgen receptor [2]): > 10 nM
- IC50 (Androgen receptor [3]): 1 nM
